Literature values in patent US7001916B1, “Epothilon derivatives, method for the production and the use thereof as pharmaceuticals” (priority 1999, dated 2006).

Tested on: P-glycoprotein-forming multiresistant tumor lines
Conditions: in comparison to taxol

Compound | activity against P-glycoprotein-forming multiresistant tumor lines
C/C(=C\c1csc(C)n1)[C@@H]1C[C@@H]2O[C@@H]2CCC[C@H](C)[C@H](O)[C@@H](C)C(=O)C(C)(C)[C@@H](O)CC(=O)O1 [Epothilone A, epothilone A] | significantly higher activity
C/C(=C\c1csc(C)n1)[C@@H]1C[C@@H]2O[C@]2(C)CCC[C@H](C)[C@H](O)[C@@H](C)C(=O)C(C)(C)[C@@H](O)CC(=O)O1 [Epothilone B, epothilone B] | significantly higher activity
